Data reported in PMC5996997 (Journal of medicinal chemistry, 2017).
“Also recorded” adds a separate entry of the source.

Legend:
[1] = target: T1, PDK2 (Homo sapiens, UniProt Q15119); experiment: Isothermal titration calorimetry; conditions: ITC, binding to PDK2
[2] = target: T1, PDK2
[3] = tested on: PDC activity; experiment: PDC activity in tissues of treated diet-induced obese mice; assay type: in vivo, C57BL/6J male mice (DIO); conditions: DIO mice, 40–45 mg/kg/day by osmotic mini-pumps, two weeks
[4] = tested on: phosphorylated E1α subunit (pE1); experiment: Western blot of phosphorylated E1α in liver homogenates of treated DIO mice; assay type: in vivo, C57BL/6J male mice (DIO); conditions: 40–45 mg/kg/day by osmotic mini-pumps, two weeks
[5] = tested on: diet-induced obese (DIO) mice; experiment: Glucose tolerance test in DIO mice; assay type: in vivo, C57BL/6J male mice (DIO); conditions: 40–45 mg/kg/day, two weeks, p <0.05 at 20, 30, 60 and 120 min
[6] = tested on: diet-induced obese (DIO) mice; experiment: Oil Red O stain of liver slices; assay type: in vivo, C57BL/6J male mice (DIO); conditions: 40–45 mg/kg/day by mini pumps, two weeks
[7] = 17 at 30 mg/kg vs 2 at 70 mg/kg IP

O=S(=O)(c1ccc(O)cc1O)N1Cc2ccc(O)cc2C1 [Compound 1, 4-((5-hydroxyisoindolin-2-yl)sulfonyl)benzene-1,3-diol]
–TΔS [1]: 5.54 kcal/mol

O=S(=O)(c1ccc(O)cc1O)N1Cc2cc(O)cc(O)c2C1 [Compound 2, 2-((2,4-dihydroxyphenyl)sulfonyl)isoindoline-4,6-diol]
–TΔS [1]: 6.57 kcal/mol

Nc1ccc2c(c1)CN(S(=O)(=O)c1ccc(O)cc1O)C2 [Compound 3]
fold higher IC50 than 1 ([2]; PDK2, relative to 1): 2 fold

O=S(=O)(c1ccc(O)cc1O)N1Cc2ccc(NC3CCNCC3)cc2C1 [Compound 5, 4-((5-(piperidin-4-ylamino)isoindolin-2-yl)sulfonyl)benzene-1,3-diol]
–TΔS [1]: 4.64 kcal/mol

NC(=O)C[C@H](N)C(=O)N1CCC(Nc2ccc3c(c2)CN(S(=O)(=O)c2ccc(O)cc2O)C3)CC1 [Compound 17, (S)-3-amino-4-(4-((2-((2,4-dihydroxyphenyl)sulfonyl)isoindolin-5-yl)amino)piperidin-1-yl)-4-oxobutanamide]
gain in enthalpy change (ΔH) compared to 5 [1]: 3.4 kcal/mol
loss in entropy compared to 5 [1]: 2.7 kcal/mol
PDC activation in heart and muscle [3]: no PDC activation
increase of PDC activity in liver compared to the vehicle control [3]: about 6 fold
phosphorylation of the E1α subunit (pE1) in the liver homogenate [4]: decreased phosphorylation
glucose tolerance over vehicle-treated mice [5]: increases glucose tolerance
hepatic fat / steatosis (Oil Red O) [6]: drastically reduced hepatic steatosis; also recorded: microvesicular
fold lower IC50 than 2 ([2]; PDK2, relative to 2): ~ 8 fold
fold better IC50 than 5 ([2]; PDK2, relative to 5): 3.4 fold
fold higher AUClast in liver than 2 [7]: > 10 fold
fold lower AUClast in muscle than 2 [7]: > 10 fold
fold slower unit-time clearance (CL/F) in liver than 2 [7]: > 30 fold
